Consider one compound from patent US20100261783A1, “CRUCIFEROUS 3H-1,2-DITHIOLE-3-THIONE (D3T) AND METHODS OF PROTECTING AGAINST CELL INJURY” (priority 2009, published 2010).

Series [1] concerns human neuroblastoma SH-SY5Y cells. Nature of the series: Induction of cellular antioxidants and phase 2 enzymes (GSH, NQO1, GCL) in SH-SY5Y cells. The series is classed as cell-based.
In series [2] the test system is SH-SY5Y cells. Briefly: Protection of SH-SY5Y cells against neurotoxicant-elicited cytotoxicity. The conditions noted are these: human neuroblastoma SH-SY5Y cells. In kind it is cell-based.
In series [3] the test system is primary human cardiomyocytes. Nature of the series: Induction of antioxidants and phase 2 enzymes in human cardiomyocytes. In kind it is cell-based.
Series [4] deals with human cardiomyocytes. Briefly: Protection of human cardiomyocytes from oxidative/electrophilic injury and doxorubicin toxicity. The series is classed as cell-based.
The test system of series [5] is human primary astrocytes. Briefly: Induction of cellular antioxidants and phase 2 enzymes in human primary astrocytes. The series is classed as cell-based.
For series [6], the system named is human neuroblastoma SH-SY5Y cells. The conditions noted are these: D3T-pretreatment of SH-SY5Y cells; cited from earlier work.
The test system of series [7] is SH-SY5Y cells. The settings on record: D3T-pretreatment; dopamine, 6-hydroxydopamine, 4-hydroxy-2-nonenal, H2O2; cited from earlier work.
Series [8] concerns primary human cardiomyocytes. The conditions noted are these: cited from earlier work.
Series [9] has as its system human cardiomyocytes. The settings on record: cited from earlier work.

`S=c1ccss1` [D3T, 3H-1,2-dithiole-3-thione]: in [1] (SH-SY5Y cells), the “induction of glutathione (GSH)” value is “marked concentration- and time-dependent induction”; the “protein and mRNA expression of gamma-glutamylcysteine ligase (GCL)” value is given as “increased”. Moreover, the “induction of cellular antioxidants and phase 2 enzymes” value in [1] (human neuronal cells (neuroblastoma SH-SY5Y cells)) is on record as “capable of inducing”. In series [2], the “protection against acrolein-induced cytotoxicity” value was “dramatic protection”. Moreover, the “induction of antioxidants in mitochondria” value in series [3] (mitochondria of the human cardiomyocytes) is listed as “potently induced”. Moreover, the “induction of a series of antioxidants” value in series [3] (primary human cardiomyocytes, total cellular) is reported as “potently induced”. In [4] (doxorubicin), the “protection of cardiomyocytes from injury elicited by doxorubicin” value is on record as “potently protected”. Moreover, the “protection of cardiomyocytes from injury caused by free radicals and electrophiles” value in series [4] (wide range of free radicals and electrophiles) is listed as “nearly complete protection”. For the same compound, the “induction of cellular antioxidants including glutathione (GSH) and phase 2 enzymes” value in [5] is “able to induce”. Moreover, in series [6], the “induction of GSH, NQO1, and mitochondrial GSH” value is given as “induction”. The “protection against the cytotoxicity elicited by neurotoxicants” value in [7] was “significant protection”. Further, the “upregulation of antioxidants and phase 2 enzymes” value in series [8] was “potently upregulated”. Also, the “resistance to oxidative/electrophilic stress and doxorubicin toxicity” value in series [9] is listed as “increased resistance”.
